Assays:
HPRP = conditions: in words; cited from earlier work
rabbit PRP = conditions: in words; cited from earlier work
rat aorta = conditions: cited from earlier work
TX synthetase = target: T1, TX synthetase (Homo sapiens, UniProt P24557); conditions: in words; cited from earlier work
T1 sequence (P24557 1-533): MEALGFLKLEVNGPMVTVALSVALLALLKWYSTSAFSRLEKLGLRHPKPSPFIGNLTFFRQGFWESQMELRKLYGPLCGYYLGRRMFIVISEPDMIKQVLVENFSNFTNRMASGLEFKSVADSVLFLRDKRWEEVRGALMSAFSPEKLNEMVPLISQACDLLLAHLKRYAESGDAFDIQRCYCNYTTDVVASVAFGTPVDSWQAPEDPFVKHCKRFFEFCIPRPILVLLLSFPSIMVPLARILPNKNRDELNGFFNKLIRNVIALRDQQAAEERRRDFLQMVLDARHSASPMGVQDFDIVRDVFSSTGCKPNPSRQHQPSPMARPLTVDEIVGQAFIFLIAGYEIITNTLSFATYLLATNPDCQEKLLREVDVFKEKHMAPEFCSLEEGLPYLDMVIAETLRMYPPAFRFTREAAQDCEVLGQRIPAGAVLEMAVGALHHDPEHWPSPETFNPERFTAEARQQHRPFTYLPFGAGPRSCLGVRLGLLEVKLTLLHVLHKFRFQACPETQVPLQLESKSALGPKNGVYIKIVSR

Platelets (Human) = test: Platelet aggregation in platelet-rich plasma from healthy human donors; assay type: cell-based
Experimental: (§1) Activity at different prostanoid receptors was measured in vitro in isolated smooth muscle preparations. FP-activity was measured as contraction of the isolated feline iris sphincter. EP1-activity was measured as contraction of the longitudinal smooth muscle of the isolated guinea pig ileum. EP3-activity was measured as inhibition of the twitch response induced by electrical field stimulation in the isolated guinea pig was deferens and as contraction of the longitudinal smooth muscle of the isolated chick ileum. TP-vasoconstrictor activity was measured as contraction of rings of the isolated rat thoracic aorta. Effects on platelets from healthy human donors were measured by incubating platelet-rich plasma with the compounds described herein. Inhibition of aggregation was determined by the ability of the compounds described herein to inhibit platelet aggregation in platelet-rich plasma induced by 20 μM ADP.

[1] = target: T2, TP-receptor (vascular, TPVASC) (Rattus norvegicus, UniProt P34978); test: TP-vasoconstrictor activity: contraction of rings of isolated rat thoracic aorta, without or with SQ29,548; conditions: for EC50: Table 1, read-out: EC50 at TPVASC (Rat Aorta)
T2 construct: measured in vitro in isolated smooth muscle preparations; from tissue; host or cells: rings of isolated rat thoracic aorta
T2 sequence (P34978 1-341): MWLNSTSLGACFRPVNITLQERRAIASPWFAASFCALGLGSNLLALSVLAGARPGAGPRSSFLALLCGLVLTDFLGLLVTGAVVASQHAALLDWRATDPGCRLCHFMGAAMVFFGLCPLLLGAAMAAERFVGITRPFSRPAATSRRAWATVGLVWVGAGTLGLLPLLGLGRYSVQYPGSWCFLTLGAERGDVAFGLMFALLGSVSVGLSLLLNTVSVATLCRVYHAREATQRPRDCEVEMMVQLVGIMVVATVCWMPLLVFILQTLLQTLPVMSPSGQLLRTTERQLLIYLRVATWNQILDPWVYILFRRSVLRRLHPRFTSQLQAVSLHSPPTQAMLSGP
Experimental: as §1
In addition, inhibition by the thromboxane A2-receptor antagonist SQ29,548 ([1S-[1α, 2α (5Z), 3α, 4α]]-7-[3-[[2-[phenylamino)carbonyl]-hydrazino]methyl]-7-oxabicyclo[2.2.1] hept-2-yl]-5-heptenoic acid) of vasoconstrictor activity was investigated.

FP prostanoid receptor = test: FP-activity: contraction of the isolated feline iris sphincter; conditions: concentration producing 50% of maximal response; read-out: EC50 at FP (Cat Iris)
Experimental: as §1

TXA2 receptor = target: T3, TXA2 receptor (Homo sapiens, UniProt P21731); conditions: in words; cited from earlier work
T3 sequence (P21731 1-343): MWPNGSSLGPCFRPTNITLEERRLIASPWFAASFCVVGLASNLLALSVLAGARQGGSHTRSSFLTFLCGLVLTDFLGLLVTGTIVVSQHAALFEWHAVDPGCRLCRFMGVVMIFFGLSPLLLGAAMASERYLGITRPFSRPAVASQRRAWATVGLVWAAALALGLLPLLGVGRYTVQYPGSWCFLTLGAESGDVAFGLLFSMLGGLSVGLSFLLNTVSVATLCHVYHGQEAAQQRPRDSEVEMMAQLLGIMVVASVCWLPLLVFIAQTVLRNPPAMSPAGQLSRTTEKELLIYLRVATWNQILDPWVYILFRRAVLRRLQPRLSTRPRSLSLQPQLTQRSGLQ

Row | SMILES | Inhibition of PGH2-induced aggregation of HPRP (HPRP) | Aggregation of rabbit PRP (rabbit PRP) | Antagonism of the aggregatory effect of TXA2 (rabbit PRP) | Contraction of rat aortic strips relative to TXA2 (rat aorta) [× TXA2] | Effect on TX (TXA2) synthetase (TX synthetase) | EC50 (Platelets (Human); Table 1, read-out: EC50 Platelets (Human) Aggregation) [nM] | Ability to cause platelet aggregation (Platelets (Human); in words) | EC50 [1] [nM] | Activity in contracting vascular smooth muscle ([1]; in words) | EC50 (FP prostanoid receptor) [nM] | TXA2-like activity (TXA2 receptor)
1 | CCCCC[C@H](O)/C=C/C1C[C@H]2CC(O2)[C@@H]1C/C=C\CCCC(=O)O (stereo partly shown) [Example 2] | Inhibitor of PGH2-induced ag- gregation of HPRP^1 | – | – | – | – | – | – | – | – | – | –
2 | CCCCCC(O)/C=C/C1C2CC(OC(=O)O2)C1C/C=C\CCCC(N)=O (stereo not drawn) [Example 15, 7-[6-carboamino-2-cis-hexenyl]-6-[3α-hydroxy-1-trans-octenyl]-3-oxo-2,4-dioxobicyclo [3.2.1] octane] | – | did not aggre- | did not | 0.02 | did not | 3110 | no or minimal ability | 58 | pronounced activity | 387 | –
3 | CCCCCC(O)/C=C/C1C2CC(OC(=O)O2)C1C/C=C\CCCC(=O)NC(C)C (stereo not drawn) [Example 17, 7-[6-carboisopropylamino-2-cis-hexenyl]-6-[3α-hydroxy-1-trans-octenyl]-3-oxo-2,4-dioxobicyclo [3.2.1] octane] | – | – | – | – | – | – | – | 324 | – | 3020 | Mixture of C-15 epimers has stong TXA2-like activity^14

Reference: US20030109571A1, “Thromboxane ligands without blood clotting side effects” (ALLERGAN SALES, INC., priority 1993, published 2003)
